Assay results taken from patent publication US12492173B2, “Herbicidal substituted N-tetrazolyl aryl carboxamides” (Bayer Aktiengesellschaft, priority 2019, dated 2025).

Key:
Format in all cases: in vivo
Abutilon theophrasti = assay: Pre-emergence herbicidal action, ABUTH; set-up: key to Herbicidal action against ABUTH: % activity: 100 = plants have died, 0 = like control plants; conditions: for herbicidal activity ABUTH / herbicidal action ABUTH: dosage 320 g/ha; for herbicidal activity ABUTH: scored visually after 3 weeks vs untreated controls (100% = plants have died)
Outline: (§1)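 Visual scoring after 3 weeks in the greenhouse, relative to untreated pots, gave percent activity, where 100% means dead plants and 0% equals controls. Treatment was a pre-emergence soil-surface spray of WP or EC formulations in water (600 to 800 l/ha, 0.2% wetting agent) over seeds covered in sandy loam.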

Veronica persica = assay: Pre-emergence herbicidal action, VERPE; set-up: key to Herbicidal action against VERPE: % activity: 100 = plants have died, 0 = like control plants; conditions: for herbicidal activity VERPE / herbicidal action VERPE: dosage 320 g/ha; for herbicidal activity VERPE: scored visually after 3 weeks vs untreated controls (100% = plants have died)
Outline: as §1

Amaranthus retroflexus = assay: Post-emergence herbicidal action, AMARE; set-up: key: % herbicidal action vs untreated; 100 = plants died, 0 = like control
Outline: (§2)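 After sowing into sandy loam, plants grew 2 to 3 weeks under greenhouse conditions until one leaf, then got a spray of compound as aqueous suspension or emulsion. Roughly three weeks on, activity was estimated visually against untreated pots.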

Polygonum convolvulus = assay: Post-emergence herbicidal action, POLCO; conditions: for Herbicidal action against POLCO: comparative experiment
Outline: as §2

Stellaria media = assay: Post-emergence herbicidal action, STEME; set-up: key: % herbicidal action vs untreated; 100 = plants died, 0 = like control
Outline: as §2

Viola tricolor = assay: Post-emergence herbicidal action, VIOTR; set-up: key: % herbicidal action vs untreated; 100 = plants died, 0 = like control; conditions: for Herbicidal action against VIOTR: comparative experiment
Outline: as §2

[1] = comparative experiment, 80 g of a.i./ha
[2] = comparative experiment, post-emergence, 20 g of a.i./ha
[3] = post-emergence, 20 g of a.i./ha

Row | Compound | herbicidal activity ABUTH (Abutilon theophrasti) | herbicidal activity VERPE (Veronica persica) | herbicidal action AMARE (Amaranthus retroflexus; post-emergence, dosage 80 g/ha) | herbicidal action POLCO (Polygonum convolvulus; post-emergence, dosage 80 g/ha) | herbicidal action STEME (Stellaria media; post-emergence, dosage 80 g/ha) | herbicidal action VIOTR (Viola tricolor; post-emergence, dosage 80 g/ha) | herbicidal action AMARE (Amaranthus retroflexus; Dosage 80 g/ha) | herbicidal action POLCO (Polygonum convolvulus; Dosage 80 g/ha) | herbicidal action STEME (Stellaria media; Dosage 80 g/ha) | herbicidal action VIOTR (Viola tricolor; Dosage 80 g/ha) | also measured
1 | CCS(=O)(=O)Cc1c(C(F)(F)F)ccc(C(=O)Nc2nnnn2C)c1Br [Example 1-385] | 100% | 100% | 90% | 90% | 100% | 100% | – | – | – | – | Herbicidal action against ABUTH (Abutilon theophrasti; [1]): 100; Herbicidal action against VERPE (Veronica persica; [1]): 100; Herbicidal action against AMARE (Amaranthus retroflexus; [2]): 90; Herbicidal action against POLCO (Polygonum convolvulus; [3]): 70; Herbicidal action against STEME (Stellaria media; [2]): 100; Herbicidal action against VIOTR (Viola tricolor; [3]): 100
2 | Cn1nnnc1NC(=O)c1ccc(C(F)(F)F)c(CS(C)(=O)=O)c1C(F)(F)C(F)(F)F [Example 1-552] | 100% | 100% | – | – | – | – | 90 | 90 | 90 | 90 | –
3 | COc1c(C(=O)Nc2nnnn2C)ccc(Cl)c1CSC [Example 1-570] | – | – | – | – | – | – | – | – | – | – | herbicidal action ABUTH (Abutilon theophrasti): 90%; herbicidal action VERPE (Veronica persica): 80%; Herbicidal action against AMARE (Amaranthus retroflexus; post-emergence, dosage 80 g/ha): 90; Herbicidal action against POLCO (Polygonum convolvulus; post-emergence, 5 g of a.i./ha): 30; Herbicidal action against STEME (Stellaria media; post-emergence, dosage 80 g/ha): 80; Herbicidal action against VIOTR (Viola tricolor; post-emergence, 5 g of a.i./ha): 60
4 | CCSCc1c(C(F)(F)F)ccc(C(=O)Nc2nnnn2CC)c1C [Example 2-86] | – | – | 80% | 100% | 100% | 100% | – | – | – | – | herbicidal action ABUTH (Abutilon theophrasti): 100%; herbicidal action VERPE (Veronica persica): 100%
5 | CCn1nnnc1NC(=O)c1ccc(C(F)(F)F)c(C[S+](C)[O-])c1SC (stereo not drawn) [Example 2-162] | 100% | 90% | – | – | – | – | 90 | 90 | 100 | 100 | –
6 | CCn1nnnc1NC(=O)c1ccc(C(F)F)c(CSC)c1SC [Example 2-170] | 100% | 100% | – | – | – | – | 100 | 90 | 100 | 100 | –
7 | CCn1nnnc1NC(=O)c1ccc(C(F)F)c(C[S+](C)[O-])c1SC (stereo not drawn) [Example 2-171] | 100% | 100% | – | – | – | – | 100 | 90 | 100 | 100 | –
8 | CCn1nnnc1NC(=O)c1ccc(C(F)(F)F)c(CSC)c1Cl [Example 2-296] | 100% | 100% | 100% | 100% | 100% | 100% | – | – | – | – | –
9 | CCn1nnnc1NC(=O)c1ccc(C(F)(F)F)c(C[S+](C)[O-])c1Cl (stereo not drawn) [Example 2-297] | 100% | 100% | 100% | 90% | 100% | 100% | – | – | – | – | –
10 | CCn1nnnc1NC(=O)c1ccc(C(F)(F)F)c(CS(C)(=O)=O)c1Cl [Example 2-298] | 100% | 100% | – | – | – | – | 90 | 90 | 100 | 100 | –
11 | CCSCc1c(C(F)(F)F)ccc(C(=O)Nc2nnnn2CC)c1Cl [Example 2-299] | 100% | 100% | 90% | 90% | 100% | 100% | – | – | – | – | –
12 | CCn1nnnc1NC(=O)c1ccc(C(F)(F)F)c(C[S+]([O-])CC)c1Cl (stereo not drawn) [Example 2-300] | 100% | 100% | 100% | 100% | 100% | 100% | – | – | – | – | –
13 | CCn1nnnc1NC(=O)c1ccc(C(F)(F)F)c(CS(=O)(=O)CC)c1Cl [Example 2-301] | – | – | – | – | – | – | 80 | 90 | 100 | 100 | herbicidal action ABUTH (Abutilon theophrasti): 100%; herbicidal action VERPE (Veronica persica): 100%
14 | CCn1nnnc1NC(=O)c1ccc(C(F)(F)F)c(CSCCOC)c1Cl [Example 2-305] | 100% | 100% | 100% | 100% | 100% | 100% | – | – | – | – | –
15 | CCn1nnnc1NC(=O)c1ccc(C(F)(F)F)c(CSCC(F)(F)F)c1Cl [Example 2-311] | 100% | 90% | – | – | – | – | 100 | 90 | 100 | 100 | –
16 | CCn1nnnc1NC(=O)c1ccc(C(F)(F)F)c(C[S+]([O-])CC2CC2)c1Cl (stereo not drawn) [Example 2-315] | 100% | 100% | – | – | – | – | 100 | 100 | 100 | 100 | –
17 | CCn1nnnc1NC(=O)c1ccc(C(F)F)c(CSC)c1Cl [Example 2-320] | 100% | 100% | – | – | – | – | 100 | 100 | 100 | 100 | –
18 | CCn1nnnc1NC(=O)c1ccc(C(F)F)c(CS(C)(=O)=O)c1Cl [Example 2-322] | 100% | 100% | 80% | 100% | 100% | 100% | – | – | – | – | –
19 | CCSCc1c(C(F)F)ccc(C(=O)Nc2nnnn2CC)c1Cl [Example 2-323] | 100% | 100% | 80% | 100% | 100% | 100% | – | – | – | – | –
20 | CCn1nnnc1NC(=O)c1ccc(C(F)F)c(C[S+]([O-])CC)c1Cl (stereo not drawn) [Example 2-324] | 100% | 100% | 100% | 100% | 100% | 100% | – | – | – | – | –
21 | CCn1nnnc1NC(=O)c1ccc(C(F)F)c(CS(=O)(=O)CC)c1Cl [Example 2-325] | 100% | 100% | – | – | – | – | 90 | 90 | 100 | 100 | –
22 | CCn1nnnc1NC(=O)c1ccc(I)c(C[S+](C)[O-])c1Cl (stereo not drawn) [Example 2-363] | 100% | 100% | – | – | – | – | 100 | 100 | 100 | 100 | –
